Tested on: gastric acid secretion induced with pentagastrin
Assay: Duration of the effect in conscious dog provided with a ventricel fistula, gastric acid secretion induced with pentagastrin
Type: in vivo
Settings: 1 mg/kg, 1 hr
Experimental: The compounds of Examples 1, 3, and 9 have also been tested with regard to the duration of the effect obtained in conscious dog provided with a ventricel fistula, the gastric acid secretion being induced with pentagastrin. The amount of gastric acid secreted before the administration of active agent was determined using a titrator, whereupon the gastric acid secretion was determined using a titrator after administration. In the table below the inhibition in % of basic secretion has been given for two different dose levels.

| SMILES | % inhibition of gastric acid secretion |
| --- | --- |
| Cc1cccc2[nH]c(SCc3ccccn3)nc12 [Example 1, [2-pyridylmethylthio]-4-methyl-2-benzimidazole] | 20% |
| CCc1ccc2nc(SCc3ccccn3)[nH]c2c1 [Example 3, 2-[2-pyridylmethylthio]-(5-ethyl)-benzimidazole] | 20% |
| CCOC(=O)c1ccc2[nH]c(SCc3ccccn3)nc2c1 [Example 9] | 20% |

Same assay, conditions: 1 mg/kg, 2 hrs

| SMILES | % inhibition of gastric acid secretion |
| --- | --- |
| Cc1cccc2[nH]c(SCc3ccccn3)nc12 [Example 1, [2-pyridylmethylthio]-4-methyl-2-benzimidazole] | 25% |
| CCc1ccc2nc(SCc3ccccn3)[nH]c2c1 [Example 3, 2-[2-pyridylmethylthio]-(5-ethyl)-benzimidazole] | 25% |
| CCOC(=O)c1ccc2[nH]c(SCc3ccccn3)nc2c1 [Example 9] | 25% |

Same assay, conditions: 1 mg/kg, 3 hrs

| SMILES | % inhibition of gastric acid secretion |
| --- | --- |
| Cc1cccc2[nH]c(SCc3ccccn3)nc12 [Example 1, [2-pyridylmethylthio]-4-methyl-2-benzimidazole] | 25% |
| CCc1ccc2nc(SCc3ccccn3)[nH]c2c1 [Example 3, 2-[2-pyridylmethylthio]-(5-ethyl)-benzimidazole] | 25% |
| CCOC(=O)c1ccc2[nH]c(SCc3ccccn3)nc2c1 [Example 9] | 25% |

Same assay, conditions: 2 mg/kg, 1 hr

| SMILES | % inhibition of gastric acid secretion |
| --- | --- |
| Cc1cccc2[nH]c(SCc3ccccn3)nc12 [Example 1, [2-pyridylmethylthio]-4-methyl-2-benzimidazole] | 50% |
| CCc1ccc2nc(SCc3ccccn3)[nH]c2c1 [Example 3, 2-[2-pyridylmethylthio]-(5-ethyl)-benzimidazole] | 50% |
| CCOC(=O)c1ccc2[nH]c(SCc3ccccn3)nc2c1 [Example 9] | 50% |

Same assay, conditions: 2 mg/kg, 2 hrs

| SMILES | % inhibition of gastric acid secretion |
| --- | --- |
| Cc1cccc2[nH]c(SCc3ccccn3)nc12 [Example 1, [2-pyridylmethylthio]-4-methyl-2-benzimidazole] | 60% |
| CCc1ccc2nc(SCc3ccccn3)[nH]c2c1 [Example 3, 2-[2-pyridylmethylthio]-(5-ethyl)-benzimidazole] | 60% |
| CCOC(=O)c1ccc2[nH]c(SCc3ccccn3)nc2c1 [Example 9] | 60% |

Same assay, conditions: 2 mg/kg, 3 hrs

| SMILES | % inhibition of gastric acid secretion |
| --- | --- |
| Cc1cccc2[nH]c(SCc3ccccn3)nc12 [Example 1, [2-pyridylmethylthio]-4-methyl-2-benzimidazole] | 65% |
| CCc1ccc2nc(SCc3ccccn3)[nH]c2c1 [Example 3, 2-[2-pyridylmethylthio]-(5-ethyl)-benzimidazole] | 65% |
| CCOC(=O)c1ccc2[nH]c(SCc3ccccn3)nc2c1 [Example 9] | 65% |

Tested on: pentagastrin induced gastric acid secretion
Assay: Inhibition of pentagastrin induced gastric acid secretion in acute dog experiments with a modified perfusion technique (anaesthetized dog)
Type: in vivo
Settings: 10 mg/kg body weight, given into the duodenum in 0.5% Methocel suspension, pentagastrin 1-2 μg/kg
Experimental: The testing was performed in acute dog experiments with a modified perfusion technique.
The stomach of the anaesthetized dog was provided with one tube through the oesophagus for instillation of fluid and another tube via the ligated pylorus through duodenum for drainage of fluid. Saline was instilled in a volume of 5 ml/kg body weight, and the instillation fluid was changed every 15 minutes.
The samples collected were titrated to pH 7.0 with 0.04 N NaOH using a Radiometer automatic titrator, and the acid output per 15 minutes was calculated (collection periods).
Gastric acid secretion was induced by pentagastrin in 1-2 μg/kg.
The amount of active agent administered was 10 mg/kg body weight.

| SMILES | % inhibition of the pentagastrin induced gastric acid secretion |
| --- | --- |
| Cc1cccc2[nH]c(SCc3ccccn3)nc12 [Example 1, [2-pyridylmethylthio]-4-methyl-2-benzimidazole] | 89% |
| CCc1ccc2nc(SCc3ccccn3)[nH]c2c1 [Example 3, 2-[2-pyridylmethylthio]-(5-ethyl)-benzimidazole] | 86% |
| COc1ccc2[nH]c(SCc3ccccn3)nc2c1 [Example 5] | 40% |
| CCOC(=O)c1ccc2[nH]c(SCc3ccccn3)nc2c1 [Example 9] | 70% |
| CC(=O)n1c(SCc2ccccn2)nc2ccccc21 [Example 16, 2-[2-pyridylmethylthio]-N-acetylbenzimidazole] | 80% |
| COC(=O)n1c(SCc2ccccn2)nc2ccccc21 [Example 17, 2-[2-pyridylmethylthio]-N-methoxycarbonylbenzimidazole] | 76% |

— patent US4045564A, “Benzimidazole derivatives useful as gastric acid secretion inhibitors” (AB Hassle, priority 1974, dated 1977)
